Columns and labels:
[1] = biological target: Sodium-dependent noradrenaline transporter (Homo sapiens, UniProt P23975)
Description: Inhibitory activity against norepinephrine (NE) uptake in rat whole brain synaptosome preparation

Mus musculus [2] = assay: Antagonistic activity against Scopolamine induced behavioral deficits in mice at dose 0.02 mg/kg sc; format: functional; details: route subcutaneous
Acetylcholinesterase = biological target: T1, Acetylcholinesterase (Rattus norvegicus, UniProt P37136)
T1 sequence (P37136 whole entry): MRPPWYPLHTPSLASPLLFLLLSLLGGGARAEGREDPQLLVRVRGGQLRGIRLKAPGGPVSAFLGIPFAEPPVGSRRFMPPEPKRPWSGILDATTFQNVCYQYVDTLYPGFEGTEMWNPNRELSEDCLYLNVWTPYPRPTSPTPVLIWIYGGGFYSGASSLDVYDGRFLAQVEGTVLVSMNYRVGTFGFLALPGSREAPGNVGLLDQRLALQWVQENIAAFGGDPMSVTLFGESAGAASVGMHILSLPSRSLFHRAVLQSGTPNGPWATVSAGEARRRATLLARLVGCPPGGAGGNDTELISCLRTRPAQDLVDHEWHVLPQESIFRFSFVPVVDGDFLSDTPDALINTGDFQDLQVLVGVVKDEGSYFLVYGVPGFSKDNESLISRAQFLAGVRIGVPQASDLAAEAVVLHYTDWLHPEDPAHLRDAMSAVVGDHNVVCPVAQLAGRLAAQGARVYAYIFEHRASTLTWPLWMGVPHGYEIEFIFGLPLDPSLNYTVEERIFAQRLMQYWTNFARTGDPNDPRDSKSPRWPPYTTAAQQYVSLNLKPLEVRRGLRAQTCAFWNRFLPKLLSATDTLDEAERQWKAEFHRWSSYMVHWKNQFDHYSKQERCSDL
Description: Inhibitory activity against acetylcholinesterase in rat striatal preparation

[3] = biological target: Muscarinic acetylcholine receptor; format: cell membranes, Membrane
Description: Inhibition of [3H]quinuclidinyl benzilate (QNB) binding from rat forebrain membranes in the absence of Zn

Mus musculus [4] = species on record: Mus musculus; assay: animal or person
Description: Effective dose against administration in mice

[5] = biological target: T2, Adrenergic receptor alpha-1 (Rattus norvegicus, UniProt P15823+P23944+P43140); assay: Inhibitory activity against [3H]WB-4101 binding to Alpha-1 adrenergic receptor in rat whole brain membrane; format: cell membranes
T2 sequence (P15823 whole entry): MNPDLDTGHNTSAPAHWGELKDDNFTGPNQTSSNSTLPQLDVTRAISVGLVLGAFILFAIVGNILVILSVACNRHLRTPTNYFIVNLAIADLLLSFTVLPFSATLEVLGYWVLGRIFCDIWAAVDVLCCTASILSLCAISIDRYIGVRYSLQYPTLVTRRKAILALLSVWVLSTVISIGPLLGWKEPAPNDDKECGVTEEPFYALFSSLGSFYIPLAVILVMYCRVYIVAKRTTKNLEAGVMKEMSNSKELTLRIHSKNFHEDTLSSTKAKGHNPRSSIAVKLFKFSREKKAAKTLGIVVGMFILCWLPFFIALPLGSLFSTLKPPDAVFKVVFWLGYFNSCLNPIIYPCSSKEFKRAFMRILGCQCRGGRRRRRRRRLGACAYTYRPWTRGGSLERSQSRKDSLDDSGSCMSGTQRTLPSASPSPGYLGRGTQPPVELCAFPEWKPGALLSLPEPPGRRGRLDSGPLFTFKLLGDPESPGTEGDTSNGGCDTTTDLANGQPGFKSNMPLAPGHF
T2 sequence (P23944 whole entry): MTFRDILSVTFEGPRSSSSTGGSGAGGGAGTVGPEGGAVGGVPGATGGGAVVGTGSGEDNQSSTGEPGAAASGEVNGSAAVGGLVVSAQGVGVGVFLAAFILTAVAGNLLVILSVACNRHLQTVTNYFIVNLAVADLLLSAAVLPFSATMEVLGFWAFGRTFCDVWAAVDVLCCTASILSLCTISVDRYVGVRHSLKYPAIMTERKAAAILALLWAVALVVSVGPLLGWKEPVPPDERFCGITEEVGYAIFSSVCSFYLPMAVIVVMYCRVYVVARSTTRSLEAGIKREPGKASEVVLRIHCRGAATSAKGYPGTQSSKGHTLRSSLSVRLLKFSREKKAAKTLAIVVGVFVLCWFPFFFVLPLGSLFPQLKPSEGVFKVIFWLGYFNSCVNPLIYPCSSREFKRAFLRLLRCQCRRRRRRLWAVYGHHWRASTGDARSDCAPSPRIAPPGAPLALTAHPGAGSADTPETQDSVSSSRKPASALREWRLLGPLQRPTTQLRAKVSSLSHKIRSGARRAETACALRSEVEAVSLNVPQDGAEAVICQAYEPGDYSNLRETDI
T2 sequence (P43140 whole entry): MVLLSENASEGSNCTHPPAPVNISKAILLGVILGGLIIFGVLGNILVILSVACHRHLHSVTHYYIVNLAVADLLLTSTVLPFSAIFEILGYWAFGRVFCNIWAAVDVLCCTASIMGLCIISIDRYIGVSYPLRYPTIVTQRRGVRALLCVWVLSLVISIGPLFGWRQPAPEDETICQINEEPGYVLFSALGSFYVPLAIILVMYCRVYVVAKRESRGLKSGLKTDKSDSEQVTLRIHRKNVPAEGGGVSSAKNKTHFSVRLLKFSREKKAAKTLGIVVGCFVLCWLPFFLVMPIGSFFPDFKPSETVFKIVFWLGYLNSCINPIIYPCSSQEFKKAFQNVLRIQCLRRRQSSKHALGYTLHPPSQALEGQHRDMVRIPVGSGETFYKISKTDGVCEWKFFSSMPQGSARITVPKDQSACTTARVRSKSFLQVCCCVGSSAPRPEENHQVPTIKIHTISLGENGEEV

[6] = biological target: Muscarinic acetylcholine receptor; format: cell membranes, Membrane; remark: listed apart in the source
Description: Inhibition of [3H]quinuclidinyl benzilate (QNB) binding from rat forebrain membranes in the presence of Zn

Mus musculus [7] = assay: Antagonistic activity against Scopolamine induced behavioral deficits in mice at dose 0.08 mg/kg sc; format: functional; details: route subcutaneous

Sodium-dependent noradrenaline transporter, sequence (P23975 whole entry): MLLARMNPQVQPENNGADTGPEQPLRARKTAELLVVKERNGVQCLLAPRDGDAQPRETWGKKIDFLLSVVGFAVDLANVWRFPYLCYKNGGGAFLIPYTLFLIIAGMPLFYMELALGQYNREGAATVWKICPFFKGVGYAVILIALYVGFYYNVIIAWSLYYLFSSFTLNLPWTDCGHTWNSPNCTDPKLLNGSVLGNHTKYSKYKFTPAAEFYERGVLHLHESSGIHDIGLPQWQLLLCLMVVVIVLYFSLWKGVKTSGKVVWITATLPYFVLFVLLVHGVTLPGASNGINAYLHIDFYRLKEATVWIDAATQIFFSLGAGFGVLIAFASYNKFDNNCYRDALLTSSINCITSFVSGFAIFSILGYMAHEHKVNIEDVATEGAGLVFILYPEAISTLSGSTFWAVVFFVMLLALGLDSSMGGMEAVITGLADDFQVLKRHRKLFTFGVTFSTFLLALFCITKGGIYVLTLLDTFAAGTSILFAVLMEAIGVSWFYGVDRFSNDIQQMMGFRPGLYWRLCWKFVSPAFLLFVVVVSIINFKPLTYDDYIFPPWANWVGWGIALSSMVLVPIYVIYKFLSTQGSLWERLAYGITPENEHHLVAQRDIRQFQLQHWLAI

SMILES: CN(c1ccncc1)n1ccc2ccccc21
- IC50 [1]: 1000 nM
- Response (Mus musculus [2]): 33%
- IC50 (Acetylcholinesterase): > 100000 nM
- IC50 [3]: 9000 nM
- ED50 (Mus musculus [4]): 3.5 mg/kg
- IC50 [5]: 1200 nM
- IC50 [6]: 5100 nM
- Response (Mus musculus [7]): 33%

SMILES: c1ccc2c(c1)ccn2Nc1ccncc1
- IC50 [1]: 2500 nM
- Response (Mus musculus [2]): 27%
- IC50 (Acetylcholinesterase): > 100000 nM
- IC50 [3]: 40000 nM
- ED50 (Mus musculus [4]): 3 mg/kg
- IC50 [5]: 510 nM
- IC50 [6]: 16000 nM
- Response (Mus musculus [7]): 20%

SMILES: CCCN(c1ccncc1)n1ccc2ccccc21 [BESIPIRDINE]
- IC50 [1]: 430 nM
- Response (Mus musculus [2]): 24%
- IC50 (Acetylcholinesterase): > 100000 nM
- IC50 [3]: 3000 nM
- ED50 (Mus musculus [4]): 3.1 mg/kg
- IC50 [5]: 10000 nM
- IC50 [6]: 940 nM
- Response (Mus musculus [7]): 33%

Source: ChEMBL document CHEMBL1129670, “Synthesis and structure-activity relationships of N-propyl-N-(4-pyridinyl)-1H-indol-1-amine (besipirdine) and related analogs as potential therapeutic agents for Alzheimer's disease” (J Med Chem, 1996)
